For orientation: IC50 means the concentration needed to halve the response being measured.

The assay addresses T1, Aurora-2 (Homo sapiens, UniProt O14965).
T1 sequence (O14965 1-403): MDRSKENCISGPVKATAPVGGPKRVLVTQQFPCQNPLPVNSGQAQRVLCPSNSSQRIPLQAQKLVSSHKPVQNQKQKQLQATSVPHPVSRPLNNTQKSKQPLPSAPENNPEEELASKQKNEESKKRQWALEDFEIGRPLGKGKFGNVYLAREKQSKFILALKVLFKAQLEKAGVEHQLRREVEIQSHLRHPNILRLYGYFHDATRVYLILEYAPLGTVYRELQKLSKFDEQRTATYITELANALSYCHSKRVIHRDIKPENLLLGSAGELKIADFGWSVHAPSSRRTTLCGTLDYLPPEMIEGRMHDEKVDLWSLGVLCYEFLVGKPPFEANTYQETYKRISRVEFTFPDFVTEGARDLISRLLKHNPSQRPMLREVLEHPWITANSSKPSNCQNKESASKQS
Nature of the assay: Inhibition assay of Aurora-2 activity (SPA technology). It is filed as biochemical. The settings on record: screened according to the methods of the pharmacology section; read-out: IC50 values for Aurora-2 inhibition. Here is the method: The inhibiting activity and the potency of selected compounds is determined through a method of assay based on the use of the SPA technology (Amersham Pharmacia Biotech).
The assay consists of the transfer of radioactivity labelled phosphate moiety by the kinase to a biotinylated substrate. The resulting 33P-labelled biotinylated product is allowed to bind to streptavidin-coated SPA beads (biotin capacity 130 pmol/mg), and light emitted was measured in a scintillation counter.
Inhibition Assay of Aurora-2 Activity
After 60 minutes at room temperature incubation, reaction was stopped and biotinylated peptide captured by adding 100 μl of bead suspension.
Stratification: 100 μl of CsCl2 5 M were added to each well and let stand 4 hour before radioactivity was counted in the Top-Count instrument.
Experimental data were analyzed by the computer program GraphPad Prizm using the four parameter logistic equation: y=bottom+(top−bottom)/(1+10^((logIC50−x)*slope)) where x is the logarithm of the inhibitor concentration, y is the response; y starts at bottom and goes to top with a sigmoid shape.
On to `CC(C)(NC(=O)c1cc2c(NC(=O)c3ccc(CN4CCOCC4)cc3)n[nH]c2s1)c1ccccc1` [Compound 38, 3-(4-Morpholin-4-ylmethyl-benzoylamino)-1H-thieno[2,3-c]pyrazole-5-carboxylic acid (1-methyl-1-phenyl-ethyl)-amide], for which the half-inhibitory concentration (IC50) was less than 20 nM.
Take `CC(C)(NC(=O)c1cc2c(NC(=O)c3ccc(CN4CCCCC4)cc3)n[nH]c2s1)c1ccccc1` [Compound 39, 3-(4-Piperidin-1-ylmethyl-benzoylamino)-1H-thieno[2,3-c]pyrazole-5-carboxylic acid(1-methyl-1-phenyl-ethyl)-amide]: the IC50 was less than 20 nM.
As for `CC(C)NCc1ccc(C(=O)Nc2n[nH]c3sc(C(=O)NC(C)(C)c4ccccc4)cc23)cc1` [Compound 40, 3-[4-(Isopropylamino-methyl)-benzoylamino]-1H-thieno[2,3-c]pyrazole-5-carboxylic acid (1-methyl-1-phenyl-ethyl)-amide], the figure is less than 20 nM.
Take `CC(C)(NC(=O)c1cc2c(NC(=O)c3ccc(CN4CCS(=O)(=O)CC4)cc3)n[nH]c2s1)c1ccccc1` [Compound 41, 3-[4-(1,1-Dioxo-1-thiomorpholin-4-ylmethyl)-benzoylamino]-1H-thieno[2,3-c]pyrazole-5-carboxylic acid(1-methyl-1-phenyl-ethyl)-amide]: the 50% inhibitory concentration (IC50) is less than 20 nM.
Under `CC(C)(NC(=O)c1cc2c(NC(=O)c3ccc(CN4CCOCC4)cc3)n[nH]c2s1)c1cccc(F)c1` [Compound 42, 3-(4-Morpholin-4-ylmethyl-benzoylamino)-1H-thieno[2,3-c]pyrazole-5-carboxylic acid [1-(3-fluoro-phenyl)-1-methyl-ethyl]-amide] stands less than 20 nM; under `CC(C)(NC(=O)c1cc2c(NC(=O)c3ccc(CN4CCC(F)CC4)cc3)n[nH]c2s1)c1ccccc1` [Compound 46], less than 20 nM.
Turning to `CC(C)(NC(=O)c1cc2c(NC(=O)c3ccc(CN4CCNCC4)cc3)n[nH]c2s1)c1ccccc1` [Compound 47, 3-(4-piperazin-1-ylmethyl-benzoylamino)-1H-thieno[2,3-c]pyrazole-5-carboxylic acid (1-methyl-1-phenyl-ethyl)-amide], the concentration for half-maximal inhibition (IC50) was less than 20 nM.
As to `CC(C)(NC(=O)c1cc2c(NC(=O)c3ccc(Cn4ccnc4)cc3)n[nH]c2s1)c1ccccc1` [Compound 48, 3-(4-Imidazol-1-ylmethyl-benzoylamino)-1H-thieno[2,3-c]pyrazole-5-carboxylic acid (1-methyl-1-phenyl-ethyl)-amide], the IC50 is less than 20 nM.
Under `CC(C)(NC(=O)c1cc2c(NC(=O)c3ccc(CN4CCSC4)cc3)n[nH]c2s1)c1ccccc1` [Compound 49, 3-(4-Thiazolidin-3-ylmethyl-benzoylamino)-1H-thieno[2,3-c]pyrazole-5-carboxylic acid (1-methyl-1-phenyl-ethyl)-amide] stands less than 20 nM; under `CC(C)(NC(=O)c1cc2c(NC(=O)c3ccc(CN4CCCC4)cc3)n[nH]c2s1)c1cccc(F)c1` [Compound 50, 3-(4-Pyrrolidin-1-ylmethyl-benzoylamino)-1H-thieno[2,3-c]pyrazole-5-carboxylic acid [1-(3-fluoro-phenyl)-1-methyl-ethyl]-amide], less than 20 nM.
With `CC(C)(NC(=O)c1cc2c(NC(=O)c3ccc(CN4CCCCC4)cc3)n[nH]c2s1)c1cccc(F)c1` [Compound 51, 3-(4-Piperidin-1-ylmethyl-benzoylamino)-1H-thieno[2,3-c]pyrazole-5-carboxylic acid [1-(3-fluoro-phenyl)-1-methyl-ethyl]-amide], the concentration for half-maximal inhibition (IC50) was less than 20 nM.
Under `CC(C)(NC(=O)c1cc2c(NC(=O)c3ccc(CN4CCC4)cc3)n[nH]c2s1)c1ccccc1` [Compound 53, 3-(4-Azetidin-1-ylmethyl-benzoylamino)-1H-thieno[2,3-c]pyrazole-5-carboxylic acid (1-methyl-1-phenyl-ethyl)-amide] stands less than 20 nM; under `CC(C)(NC(=O)c1cc2c(NC(=O)c3ccc(CN4CCN(C(C)(C)C)CC4)cc3)n[nH]c2s1)c1ccccc1` [Compound 57, 3-[4-(4-tert-Butyl-piperazin-1-ylmethyl)-benzoylamino]-1H-thieno[2,3-c]pyrazole-5-carboxylic acid (1-methyl-1-phenyl-ethyl)-amide], less than 20 nM; under `CC(C)(NC(=O)c1cc2c(NC(=O)c3ccc(CN4CCCC4)cc3)n[nH]c2s1)c1ccc(F)cc1` [Compound 58, 3-(4-Pyrrolidin-1-ylmethyl-benzoylamino)-1H-thieno[2,3-c]pyrazole-5-carboxylic acid [1-(4-fluoro-phenyl)-1-methyl-ethyl]-amide], less than 20 nM.
In the case of `CC(C)(NC(=O)c1cc2c(NC(=O)c3ccc(CN4CCCCC4)cc3)n[nH]c2s1)c1ccc(F)cc1` [Compound 59, 3-(4-Piperidin-1-ylmethyl-benzoylamino)-1H-thieno[2,3-c]pyrazole-5-carboxylic acid [1-(4-fluoro-phenyl)-1-methyl-ethyl]-amide], the half-maximal inhibitory concentration (IC50) is less than 20 nM.
Under `CC(C)(NC(=O)c1cc2c(NC(=O)c3ccc(CNC4CC4)cc3)n[nH]c2s1)c1ccccc1` [Compound 62, 3-(4-Cyclopropylaminomethyl-benzoylamino)-1H-thieno[2,3-c]pyrazole-5-carboxylic acid (1-methyl-1-phenyl-ethyl)-amide] stands less than 20 nM.
With `CC(C)(NC(=O)c1cc2c(NC(=O)c3ccc(CNC4CCC4)cc3)n[nH]c2s1)c1ccccc1` [Compound 63, 3-(4-Cyclobutylaminomethyl-benzoylamino)-1H-thieno[2,3-c]pyrazole-5-carboxylic acid (1-methyl-1-phenyl-ethyl)-amide], the half-inhibitory concentration (IC50) was less than 20 nM.
On to `CC(C)N(C)Cc1ccc(C(=O)Nc2n[nH]c3sc(C(=O)NC(C)(C)c4ccccc4)cc23)cc1` [Compound 64, 3-{4-[(Isopropyl-methyl-amino)-methyl]benzoylamino}-1H-thieno[2,3-c]pyrazole-5-carboxylic acid (1-methyl-1-phenyl-ethyl)-amide], for which the concentration for half-maximal inhibition (IC50) is less than 20 nM.
As for `CC(C)(NC(=O)c1cc2c(NC(=O)c3ccc(CNC4CCCC4)cc3)n[nH]c2s1)c1ccccc1` [Compound 65, 3-(4-Cyclopentylaminomethyl-benzoylamino)-1H-thieno[2,3-c]pyrazole-5-carboxylic acid (1-methyl-1-phenyl-ethyl)-amide], the figure is less than 20 nM.
Regarding `O=C(Nc1n[nH]c2sc(C(=O)NC3(c4ccccc4)CCCC3)cc12)c1cccs1` [Compound 122, 3-[(Thiophene-2-carbonyl)-amino]-1H-thieno[2,3-c]pyrazole-5-carboxylic acid (1-phenyl-cyclopentyl)-amide], the half-inhibitory concentration (IC50) was less than 20 nM.
As for `CC(C)(NC(=O)c1cc2c(NC(=O)c3cccs3)n[nH]c2s1)c1ccccc1F` [Compound 123, 3-[(Thiophene-2-carbonyl)-amino]-1H-thieno[2,3-c]pyrazole-5-carboxylic acid [1-(2-fluoro-phenyl)-1-methyl-ethyl]-amide], the half-inhibitory concentration (IC50) is less than 20 nM.
Turning to `CC(C)(NC(=O)c1cc2c(NC(=O)c3cccs3)n[nH]c2s1)c1cccc(F)c1` [Compound 124, 3-[(Thiophene-2-carbonyl)-amino]-1H-thieno[2,3-c]pyrazole-5-carboxylic acid [1-(3-fluoro-phenyl)-1-methyl-ethyl]-amide], the concentration for half-maximal inhibition (IC50) was less than 20 nM.
For `CN(C)CCOc1ccc(C(=O)Nc2n[nH]c3sc(C(=O)NC(C)(C)c4ccccc4F)cc23)cc1` [Compound 126, 3-[4-(2-Dimethylamino-ethoxy)-benzoylamino]-1H-thieno[2,3-c]pyrazole-5-carboxylic acid [1-(2-fluoro-phenyl)-1-methyl-ethyl]-amide], the 50% inhibitory concentration (IC50) was less than 20 nM.
As for `O=C(Nc1n[nH]c2sc(C(=O)NC3(c4ccccc4)CCCC3)cc12)c1ccc(N2CCOCC2)cc1` [Compound 131, 3-(4-Morpholin-4-yl-benzoylamino)-1H-thieno[2,3-c]pyrazole-5-carboxylic acid (1-phenyl-cyclopentyl)-amide], the figure is less than 20 nM; as for `CN1CCN(c2ccc(C(=O)Nc3n[nH]c4sc(C(=O)NC(C)(C)c5cccc(Cl)c5)cc34)cc2)CC1` [Compound 132, 3-[4-(4-Methyl-piperazin-1-yl)-benzoylamino]-1H-thieno[2,3-c]pyrazole-5-carboxylic acid[1-(3-chloro-phenyl)-1-methyl-ethyl]amide], less than 20 nM.
As for `COc1ccc(C(=O)Nc2n[nH]c3sc(C(=O)NC4(c5ccccc5)CC4)cc23)cc1` [Compound 134, 3-(4-Methoxy-benzoylamino)-1H-thieno[2,3-c]pyrazole-5-carboxylic acid (1-phenyl-cyclopropyl)-amide], the figure is less than 20 nM; as for `CC(C)(NC(=O)c1cc2c(NC(=O)c3ccc(N4CCOCC4)nc3)n[nH]c2s1)c1ccccc1` [Compound 136, 3-[(6-Morpholin-4-yl-pyridine-3-carbonyl)-amino]-1H-thieno[2,3-c]pyrazole-5-carboxylic acid (1-methyl-1-phenyl-ethyl)-amide], less than 20 nM.

Source of the values: US8481584B2, “1H-thieno[2,3-c]pyrazole derivatives useful as kinase inhibitors” (Nerviano Medical Sciences S.R.L., priority 2004, dated 2013).
